The results in this text go back to patent US8563545B2, “Compound useful for the treatment of degenerative and inflammatory diseases” (Galapagos NV, priority 2009, dated 2013).

Structures are written as SMILES.

The test system of this assay is JAK1-dependent signaling pathway (IFNα induced pSTAT1) in human whole blood. Description: tissue or blood. The conditions noted are these: read-out: pIC50 for inhibiting the INFα induced increase of pSTAT1 levels (converted). As for the experimental part:
The samples were incubated at 37° C. for 30 min.
Absorbance was measured at 450 nm.

For `O=C(Nc1nc2cccc(-c3ccc(CN4CCS(=O)(=O)CC4)cc3)n2n1)C1CC1` [Compound 1, Cyclopropanecarboxylic acid {5-[4-(1,1-dioxo-1-thiomorpholin-4-ylmethyl)-phenyl]-[1,2,4]triazolo [1,5-a]pyridin-2-yl}-amide], the IC50 was 589 nM.
